Legend:
[1] = tested on: histone acetylation (H3K27ac, H4K5ac, acetyl-lysine); assay: Histone acetylation in cells, Western blot; format: cell-based; settings: MDA-MB-468 cells; only moderate effects compared to 15 and CRBN-based PROTACs
Protocol: The culture of the triple-negative breast cancer cell line MDA-MB-468 and the ER+ breast cancer cell line T47D was exposed to vehicle control (DMSO) and the indicated compounds at specified concentrations for 14 h. Cells were lysed for WB with antibodies against the indicated proteins. Antibodies against acetylated histones at specific sites (H3K27 and H4K5) and acetyl-lysine were used to assess levels of histone acetylation. Levels of HDAC3 were normalized against that of tubulin and % of HDAC3 protein levels in cells treated with the indicated compounds relative to that in DMSO control is shown.
Cell lines were obtained from ATCC and subsequently authenticated. Cells were cultured with DMEM supplemented with 10% bovine calf serum, penicillin to 10 units/mL, and streptomycin to 10 μg/mL. For viability assays, 5,000 cells/well were seeded in 96-well plates. Compounds at a specified concentration or DMSO were added 24 h later. Viability assays were performed 72 h after compound addition using the CellTiter-Glo reagents (Promega). For colony formation assay, cells (˜1,000 cells/well) were seeded in a 24-well plate in quadruplicates. At 24 h after seeding, DMSO, XZ9002, or XZ9002-NC were added at a specified concentration. […]

HDAC3 = HDAC3 (Homo sapiens, UniProt O15379); assay: HDAC3 degradation in breast cancer cell lines, Western blot; format: cell-based; set-up: endogenous in cells; host or cells: MDA-MB-468, T47D, MCF7; settings: MDA-MB-468 cells
Excerpt: Data are presented as representative figures of two independent experiments.
Cells were lysed for WB with antibodies against the indicated proteins. Antibodies against acetylated histones at specific sites (H3K27 and H4K5) and acetyl-lysine were used to assess levels of histone acetylation.
Cells were lysed for WB. […] The indicated BC cell lines were exposed to DMSO, XZ9002, or XZ9002-NC at the indicated concentrations. Colonies were fixed and stained.
Cell lines were obtained from ATCC and subsequently authenticated. Cells were cultured with DMEM supplemented with 10% bovine calf serum, penicillin to 10 units/mL, and streptomycin to 10 μg/mL. For viability assays, 5,000 cells/well were seeded in 96-well plates. […] For colony formation assay, cells (˜1,000 cells/well) were seeded in a 24-well plate in quadruplicates. […] Medium was replaced with freshly prepared medium containing DMSO, XZ9002 or XZ9002-NC every five days until visible colonies appeared, typically in 15 to 20 days after initial cell seeding. Cells were fixed with 4% paraformaldehyde for 15 min and stained with 2% methylene blue in 20% ethanol for 30 min to 1 h. The cells were washed twice with distilled water and dried in air. For western blotting, cell cultures were exposed to compounds as indicated in relevant figures. Medium was removed from culture plate, and 1 x passive lysis buffer was then added, the plates were frozen at −80° C. overnight and thawed at room temperature. The total cell lysates were mixed with a one fifth volume of 6x SDS sample buffer, heated at 95° C. for 5 min and cooled on ice. The lysates were cleared by centrifugation and then subjected to SDS-PAGE and western blotting essentially as described.

HDAC3, sequence (O15379 whole entry): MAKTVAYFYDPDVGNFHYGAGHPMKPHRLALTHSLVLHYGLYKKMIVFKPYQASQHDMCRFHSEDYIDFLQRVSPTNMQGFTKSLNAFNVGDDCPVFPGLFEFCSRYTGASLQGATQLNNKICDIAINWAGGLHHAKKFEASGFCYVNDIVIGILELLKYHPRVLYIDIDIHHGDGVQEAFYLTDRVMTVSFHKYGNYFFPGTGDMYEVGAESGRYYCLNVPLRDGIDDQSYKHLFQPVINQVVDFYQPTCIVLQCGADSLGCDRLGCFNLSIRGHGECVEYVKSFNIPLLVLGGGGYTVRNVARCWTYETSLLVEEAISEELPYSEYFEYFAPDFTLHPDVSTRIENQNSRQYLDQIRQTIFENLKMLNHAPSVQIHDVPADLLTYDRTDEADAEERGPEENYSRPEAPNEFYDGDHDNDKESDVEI
HDAC3, sequence (Q9Y618 395-498 partner limits assumed): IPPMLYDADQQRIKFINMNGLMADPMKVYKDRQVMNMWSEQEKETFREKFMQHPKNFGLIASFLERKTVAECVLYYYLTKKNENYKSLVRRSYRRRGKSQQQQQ

## CCCNNC(=O)c1ccc(-c2ccc(NC(=O)CCCCCCC(=O)N[C@H](C(=O)N3C[C@H](O)C[C@H]3C(=O)N[C@@H](C)c3ccc(-c4scnc4C)cc3)C(C)(C)C)cc2)cc1 [XZ9002, N^1—((S)-1-((2S,4R)-4-hydroxy-2-(((S)-1-(4-(4-methylthiazol-5-yl)phenyl)ethyl)carbamoyl)pyrrolidin-1-yl)-3,3-dimethyl-1-oxobutan-2-yl)-N^5-(4′-(2-propylhydrazine-1-carbonyl)-[1,1′-biphenyl]-4-yl)octanediamide]
[1]
  histone acetylation: dose-dependently increased
HDAC3; 125 nM
  start of HDAC3 degradation: ≤ 2 h
HDAC3; 125 nM for 14 h, then drug-free medium
  time for HDAC3 to rebound to the steady level after washout: more than 12 h
HDAC3; 125 nM, 8 h
  HDAC3 degraded: 70%
HDAC3; 14 h treatment, read-out: HDAC3 DC50 (the concentration for 50% protein degradation)
  DC50: 42 nM
HDAC3; MG132 1 μM for 1 h, XZ9002 125 nM
  HDAC3 degradation after pre-incubation with proteasome inhibitor MG132: blocked
HDAC3; VH032 10 μM for 1 h, XZ9002 125 nM
  HDAC3 degradation after pre-incubation with VHL ligand VH032: blocked
